13 compounds from patent publication US11174264B2, “TYK2 inhibitors and uses thereof” (Nimbus Lakshmi, Inc., priority 2019, dated 2021) can be followed below.

The target in assay [1] is human TYK2 (JH2domain-pseudokinase) (Homo sapiens (Human), UniProt P29597). The assay is described as follows: TYK2 JH2 Domain Binding Assay (KINOMEscan). To be noted: read-out: hTYK2_JH2_Binding (Kd). As for the experimental part:
Binding constants for compounds of the present invention against the JH2 domain were determined by the following protocol for a KINOMEscan® assay (DiscoveRx). A fusion protein of a partial length construct of human TYK2 (JH2domain-pseudokinase) (amino acids G556 to D888 based on reference sequence NP_003322.3) and the DNA binding domain of NFkB was expressed in transiently transfected HEK293 cells. From these HEK 293 cells, extracts were prepared in M-PER extraction buffer (Pierce) in the presence of Protease Inhibitor Cocktail Complete (Roche) and Phosphatase Inhibitor Cocktail Set II (Merck) per manufacturers' instructions. The TYK2 (JH2domain-pseudokinase) fusion protein was labeled with a chimeric double-stranded DNA tag containing the NFkB binding site (5′-[…]-3′) fused to an amplicon for qPCR readout, which was added directly to the expression extract (the final concentration of DNA-tag in the binding reaction is 0.1 nM).
The liganded beads were blocked with excess biotin and washed with blocking buffer (SeaBlock (Pierce), 1% BSA, 0.05% Tween 20, 1 mM DTT) to remove unbound ligand and to reduce nonspecific binding.
Extracts were used directly in binding assays without any enzyme purification steps at a ≥10,000-fold overall stock dilution (final DNA-tagged enzyme concentration <0.1 nM). Extracts were loaded with DNA-tag and diluted into the binding reaction in a two step process. First extracts were diluted 1:100 in 1× binding buffer (PBS/0.05% Tween 20/10 mM DTT/0.1% BSA/2 μg/ml sonicated salmon sperm DNA) containing 10 nM DNA-tag. This dilution was allowed to equilibrate at room temperature for 15 minutes and then subsequently diluted 1:100 in 1× binding buffer. […] Kds were determined using an 11-point 3-fold compound dilution series with three DMSO control points. […] The compounds were then diluted directly into the assays such that the final concentration of DMSO was 0.9%. All reactions performed in polypropylene 384-well plates. Each was a final volume of 0.02 mL. Assays were incubated with shaking for 1 hour at room temperature. Then the beads were pelleted and washed with wash buffer (1×PBS, 0.05% Tween 20) to remove displaced kinase and test compound. […] The qPCR protocol consisted of a 10 minute hot start at 95° C., followed by 35 cycles of 95° C. for 15 seconds, 60° C. for 1 minute.
The compounds were then diluted directly into the assays such that the final concentration of DMSO was 0.9%. […] Kd measurements were performed in duplicate.
Binding constants (Kd values) were calculated with a standard dose-response curve using the Hill equation: […]
The Hill Slope was set to −1.

Another assay addresses JAK2 kinase domain (JH1) (Homo sapiens (Human), UniProt O60674). The assay is described as follows: JAK2 Radioactive Kinase Assay. In kind it is biochemical. To be noted: 10 μM compound, ATP at 10 μM. As for the experimental part:
The Tyk2 and JAK2 radioactive kinase assay measures the percent inhibition at the Tyk2 kinase domain (JH1) and the percent inhibition at the JAK2 kinase domain (JH1). Results of the assay are expressed as percent inhibition at 10 μM.

Another assay addresses JAK1 kinase domain (Homo sapiens (Human), UniProt P23458). The assay is described as follows: JAK1 Radioactive Kinase Assay. It counts as biochemical. To be noted: 10 μM compound. The source says: (§1) Similar assays were run to measure the percent inhibition at the JAK1 and JAK3 kinase domains.
The next assay addresses JAK3 kinase domain (Homo sapiens (Human), UniProt P52333). Nature of the assay: JAK3 Radioactive Kinase Assay. It counts as biochemical. Particulars: 10 μM compound.
Source text: as §1

Assay [2] relates to IL-12 induced STAT4 phophorylation mediated by Tyk2/JAK2 (heterodimeric complex). Nature of the assay: IL-12 Induced pSTAT4 in Human PBMC. It counts as cell-based. To be noted: for IC50: 1.7 ng/mL IL-12, read-out: PBMC_IL-12-pSTAT4 (IC50); for inhibition at 0.05 µM: Homo sapiens, PBMC, 1.7 ng/mL IL-12, read-out: PBMC_IL-12-pSTAT4 (% Inhibition_Average_@0.05 uM) [%]. As for the experimental part: Human PBMC are isolated from buffy coat and are stored frozen for assays as needed. […] 15 μl of compound or DMSO is added to the well at the desired concentrations and incubated at 1 hr at 37° C. 15 μl of stimulus (final concentration of 1.7 ng/mL IL-12) is added for 30 minutes prior to pSTAT4 and total STAT4 analysis using cell lysates prepared and analyzed by MSD reagents as per manufacturer protocol. The final DMSO concentration of compound in the assay is 0.1%.
The IL-12 Induced pSTAT4 assay evaluates the inhibition of IL-12 induced STAT4 phophorylation mediated by Tyk2/JAK2 (heterodimeric complex).

Bounds are passed on as bounds.

human TYK2 (JH2domain-pseudokinase), sequence (P29597 556-888): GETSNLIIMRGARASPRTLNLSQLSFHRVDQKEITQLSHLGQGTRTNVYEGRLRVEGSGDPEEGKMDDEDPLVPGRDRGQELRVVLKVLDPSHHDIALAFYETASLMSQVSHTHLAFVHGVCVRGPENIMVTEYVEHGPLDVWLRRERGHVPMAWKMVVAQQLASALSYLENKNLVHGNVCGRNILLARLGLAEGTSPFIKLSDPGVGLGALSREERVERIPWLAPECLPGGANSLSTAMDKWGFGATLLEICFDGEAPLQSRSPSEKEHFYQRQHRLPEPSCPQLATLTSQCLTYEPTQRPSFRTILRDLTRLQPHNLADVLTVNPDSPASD
JAK1 kinase domain, sequence (P23458 875-1153): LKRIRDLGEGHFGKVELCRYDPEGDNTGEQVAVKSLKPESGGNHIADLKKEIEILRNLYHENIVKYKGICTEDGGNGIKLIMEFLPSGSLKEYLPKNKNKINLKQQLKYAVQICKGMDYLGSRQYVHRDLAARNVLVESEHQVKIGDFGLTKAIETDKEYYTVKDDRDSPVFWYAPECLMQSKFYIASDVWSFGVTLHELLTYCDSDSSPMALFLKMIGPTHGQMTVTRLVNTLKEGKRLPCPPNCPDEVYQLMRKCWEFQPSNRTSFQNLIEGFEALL
JAK3 kinase domain, sequence (P52333 822-1111): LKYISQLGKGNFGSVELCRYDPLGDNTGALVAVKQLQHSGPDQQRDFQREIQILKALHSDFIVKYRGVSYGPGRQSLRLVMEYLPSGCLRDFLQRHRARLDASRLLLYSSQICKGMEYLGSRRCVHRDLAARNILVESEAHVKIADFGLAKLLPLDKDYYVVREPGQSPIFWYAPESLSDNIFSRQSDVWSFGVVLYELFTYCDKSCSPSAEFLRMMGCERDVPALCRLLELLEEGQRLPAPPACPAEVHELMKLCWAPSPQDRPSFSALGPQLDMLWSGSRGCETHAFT
JAK2 kinase domain (JH1), sequence (O60674 849-1124): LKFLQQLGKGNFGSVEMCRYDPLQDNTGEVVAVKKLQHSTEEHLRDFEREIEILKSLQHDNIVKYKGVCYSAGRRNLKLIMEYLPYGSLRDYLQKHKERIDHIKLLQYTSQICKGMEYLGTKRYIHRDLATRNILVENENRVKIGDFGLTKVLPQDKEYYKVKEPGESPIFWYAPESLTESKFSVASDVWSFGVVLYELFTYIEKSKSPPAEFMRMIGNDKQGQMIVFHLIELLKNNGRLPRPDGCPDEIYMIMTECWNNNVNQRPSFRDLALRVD

Regarding `CNc1cc(-c2cn(C(C)C)c3ncccc23)nn2c(C(=O)N[C@H]3CC[C@H]3O)cnc12` (racemic) [Compound I-15, N-(2-hydroxycyclobutyl)-6-(1-isopropyl-1H-pyrrolo[2,3-b]pyridin-3-yl)-8-(methylamino)imidazo[1,2-b]pyridazine-3-carboxamide], the Kd in assay [1] is less than 0.2 nM. For the same compound, the “JAK2_IC50_RB (% INH_@_10 uM) at 10.0 uM [% INH]” value at JAK2 kinase domain (JH1) is recorded as “A (had a percent inhibition at 10 μM lower than 50)”. On JAK1 kinase domain, the “JAK1_IC50_RB (% INH_@_10 uM) at 10.0 uM [% INH]” value is reported as “A (had a percent inhibition at 10 μM lower than 50)”. For the same compound, the “JAK3_IC50_RB (% INH_@_10 uM) at 10.0 uM [% INH]” value on JAK3 kinase domain is recorded as “A (had a percent inhibition at 10 μM lower than 50)”. In addition, the IC50 in assay [2] was less than 100 nM. Moreover, the “PBMC_IL-12-pSTAT4 (% Inhibition_Average_@0.05 uM) [%]” value in assay [2] (0.05 μM compound, 1.7 ng/mL IL-12) is “** (had a percent inhibition at 0.05 μM between 50 and 70)”.
As for `CNc1cc(Nc2cccn([C@H]3CC[C@H](OC)CC3)c2=O)nn2c(C(=O)N[C@H]3CC[C@@H]3OC)cnc12` (racemic) [Compound I-21, N-(2-methoxycyclobutyl)-6-((1-((1r,4S)-4-methoxycyclohexyl)-2-oxo-1,2-dihydropyridin-3-yl)amino)-8-(methylamino)imidazo[1,2-b]pyridazine-3-carboxamide], in assay [1], the Kd is less than 0.2 nM. Also, in assay [2], the IC50 is less than 100 nM. The inhibition at 0.05 µM in assay [2] (0.05 μM compound) was more than 90%.
As for `CNc1cc(Nc2cccn([C@H]3[C@@H]4COC[C@@H]43)c2=O)nn2c(C(=O)N[C@H]3CC[C@@H]3OC)cnc12` (racemic) [Compound I-22, 6-((1-((1R,5S,6r)-3-oxabicyclo[3.1.0]hexan-6-yl)-2-oxo-1,2-dihydropyridin-3-yl)amino)-N-(2-methoxycyclobutyl)-8-(methylamino)imidazo[1,2-b]pyridazine-3-carboxamide], the Kd in assay [1] was less than 0.2 nM. Besides, the IC50 in assay [2] was less than 100 nM. In addition, the inhibition at 0.05 µM in assay [2] (0.05 μM compound) lay in the range of 70 to 90%.
Take `CNc1cc(Nc2cccn([C@H]3C[C@H](OC)C3)c2=O)nn2c(C(=O)N[C@H]3CC[C@@H]3OC)cnc12` (racemic) [Compound I-23, N-((1S,2S)-2-methoxycyclobutyl)-6-((1-((1r,3S)-3-methoxycyclobutyl)-2-oxo-1,2-dihydropyridin-3-yl)amino)-8-(methylamino)imidazo[1,2-b]pyridazine-3-carboxamide]: in assay [1], the Kd is less than 0.2 nM. Also, in assay [2], the IC50 was less than 100 nM. In addition, the inhibition at 0.05 µM in assay [2] (0.05 μM compound) fell in the range of 70 to 90%.
Take `CNc1cc(Nc2cccn(-c3ncccc3F)c2=O)nn2c(C(=O)N[C@H]3CC[C@@H]3OC)cnc12` (stereo in doubt) [Compound I-17, 6-((3′-fluoro-2-oxo-2H-[1,2′-bipyridin]-3-yl)amino)-N-(2-methoxycyclobutyl)-8-(methylamino)imidazo[1,2-b]pyridazine-3-carboxamide]: the Kd in assay [1] was less than 0.2 nM. Besides, the IC50 in assay [2] was less than 100 nM. Further, in assay [2] (0.05 μM compound), the inhibition at 0.05 µM lay within 50 to 70%.
As for `CNc1cc(Nc2cccn(-c3ccccn3)c2=O)nn2c(C(=O)N[C@H]3CC[C@@H]3OC)cnc12` (stereo in doubt) [Compound I-18, N-(2-methoxycyclobutyl)-8-(methylamino)-6-((2-oxo-2H-[1,2′-bipyridin]-3-yl)amino)imidazo[1,2-b]pyridazine-3-carboxamide], the Kd in assay [1] is less than 0.2 nM. In addition, the IC50 in assay [2] was less than 100 nM. Moreover, the inhibition at 0.05 µM in assay [2] (0.05 μM compound) lay within 70 to 90%.
`CNc1cc(Nc2cccn(-c3ccc(C)nc3)c2=O)nn2c(C(=O)N[C@H]3CC[C@@H]3OC)cnc12` (stereo in doubt) [Compound I-19, N-(2-methoxycyclobutyl)-6-((6′-methyl-2-oxo-2H-[1,3′-bipyridin]-3-yl)amino)-8-(methylamino)imidazo[1,2-b]pyridazine-3-carboxamide]: the Kd in assay [1] is less than 0.2 nM. Besides, in assay [2], the IC50 was less than 100 nM. In assay [2] (0.05 μM compound), the inhibition at 0.05 µM fell in the range of 50 to 70%.
As for `CNc1cc(Nc2cccn(C3CCOCC3)c2=O)nn2c(C(=O)N[C@H]3CC[C@@H]3OC)cnc12` (stereo in doubt) [Compound I-20, N-(2-methoxycyclobutyl)-8-(methylamino)-6-((2-oxo-1-(tetrahydro-2H-pyran-4-yl)-1,2-dihydropyridin-3-yl)amino)imidazo[1,2-b]pyridazine-3-carboxamide], in assay [1], the Kd is less than 0.2 nM. For the same compound, the IC50 in assay [2] was less than 100 nM. The inhibition at 0.05 µM in assay [2] (0.05 μM compound) was in the range of 70 to 90%.
Consider `CNc1cc(-c2cn(C3CCOCC3)c3ncccc23)nn2c(C(=O)N[C@@H]3CC[C@@H]3O)cnc12` [Compound I-8, N-((1R,2S)-2-hydroxycyclobutyl)-8-(methylamino)-6-(1-(tetrahydro-2H-pyran-4-yl)-1H-pyrrolo[2,3-b]pyridin-3-yl)imidazo[1,2-b]pyridazine-3-carboxamide], for which the Kd in assay [1] is less than 0.2 nM.
As to `CNc1cc(-c2cn(CCN3CCOCC3)c3ncccc23)nn2c(C(=O)N[C@@H]3CC[C@@H]3O)cnc12` [Compound I-9, N-((1R,2S)-2-hydroxycyclobutyl)-8-(methylamino)-6-(1-(2-morpholinoethyl)-1H-pyrrol[2,3-b]pyridin-3-yl)imidazo[1,2-b]pyridazine-3-carboxamide], the Kd in assay [1] is 0.2 to 1 nM. Further, the inhibition at 10 µM on JAK2 kinase domain (JH1) (read-out: JAK2_IC50_RB (% INH_@_10 uM) at 10.0 uM [% INH]), on JAK1 kinase domain (read-out: JAK1_IC50_RB (% INH_@_10 uM) at 10.0 uM [% INH]) and on JAK3 kinase domain (read-out: JAK3_IC50_RB (% INH_@_10 uM) at 10.0 uM [% INH]) was less than 50% in each case.
`CNc1cc(-c2cn(C3CCOCC3)c3ncccc23)nn2c(C(=O)N[C@H]3CC[C@H]3O)cnc12` [Compound I-11, N-((1S,2R)-2-hydroxycyclobutyl)-8-(methylamino)-6-(1-(tetrahydro-2H-pyran-4-yl)-1H-pyrrolo[2,3-b]pyridin-3-yl)imidazo[1,2-b]pyridazine-3-carboxamide]: the Kd in assay [1] is less than 0.2 nM. For the same compound, the inhibition at 0.05 µM in assay [2] (0.05 μM compound) fell in the range of 70 to 90%.
For `CNc1cc(-c2cn(C(C)C)c3ncccc23)nn2c(C(=O)N[C@@H]3COC[C@@H]3O)cnc12` [Compound I-13, N-((3R,4R)-4-hydroxytetrahydrofuran-3-yl)-6-(1-isopropyl-1H-pyrrolo[2,3-b]pyridin-3-yl)-8-(methylamino)imidazo[1,2-b]pyridazine-3-carboxamide], in assay [1], the Kd was 0.2 to 1 nM.
Consider `CNc1cc(-c2cn(C(C)C)c3ncccc23)nn2c(C(=O)N[C@H]3COC[C@H]3O)cnc12` [Compound I-14, N-((3S,4S)-4-hydroxytetrahydrofuran-3-yl)-6-(1-isopropyl-1H-pyrrolo[2,3-b]pyridin-3-yl)-8-(methylamino)imidazo[1,2-b]pyridazine-3-carboxamide], for which the Kd in assay [1] is less than 0.2 nM. In addition, in assay [2] (0.05 μM compound), the inhibition at 0.05 µM was in the range of 70 to 90%.
